#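 Interpolation was linear, between the two tested concentrations surrounding the appropriate level; five concentrations were tested over 48 hours in 96-well plates. GI50 marks 50% less growth.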 Active and inactive are the calls of the source. Cut-off read from the data, not from the text of the source: active = GI50 up to about 1.1 µM and inactive = higher.
# Key:
# Assay in all cases: growth of human tumour cells (NCI), 48 h
# 786-0 = test system: 786-0
# A498 = test system: A498
# A549 = test system: A549
# ACHN = test system: ACHN
# BT-549 = test system: BT-549
# CAKI-1 = test system: CAKI-1
# CCRF-CEM = test system: CCRF-CEM
# COLO 205 = test system: COLO 205
# DU-145 = test system: DU-145
# EKVX = test system: EKVX
# HCC 2998 = test system: HCC 2998
# HCT-116 = test system: HCT-116
# HCT-15 = test system: HCT-15
# HL-60 = test system: HL-60
# HOP-62 = test system: HOP-62
# HOP-92 = test system: HOP-92
# HT-29 = test system: HT-29
# Hs-578T = test system: Hs-578T
# IGROV-1 = test system: IGROV-1
# K562 = test system: K562
# KM12 = test system: KM12
# LOX IMVI = test system: LOX IMVI
# MCF7 = test system: MCF7
# MDA-MB-231 = test system: MDA-MB-231
# MDA-MB-435 = test system: MDA-MB-435
# MOLT-4 = test system: MOLT-4
# Malme-3M = test system: Malme-3M
# NCI-H226 = test system: NCI-H226
# NCI-H23 = test system: NCI-H23
# NCI-H460 = test system: NCI-H460
# NCI-H522 = test system: NCI-H522
# NCI/ADR-RES = test system: NCI/ADR-RES
# OVCAR-3 = test system: OVCAR-3
# OVCAR-4 = test system: OVCAR-4
# OVCAR-5 = test system: OVCAR-5
# OVCAR-8 = test system: OVCAR-8
# PC-3 = test system: PC-3
# RPMI-8226 = test system: RPMI-8226
# RXF 393 = test system: RXF 393
# SF-268 = test system: SF-268
# SF-295 = test system: SF-295
# SF-539 = test system: SF-539
# SK-MEL-28 = test system: SK-MEL-28
# SK-MEL-2 = test system: SK-MEL-2
# SK-MEL-5 = test system: SK-MEL-5
# SN12C = test system: SN12C
# SNB-75 = test system: SNB-75
# SR = test system: SR
# SW-620 = test system: SW-620
# TK-10 = test system: TK-10
# U-251 = test system: U-251
# UACC-257 = test system: UACC-257
# UO-31 = test system: UO-31
# M14 = test system: M14
# SK-OV-3 = test system: SK-OV-3
# SNB-19 = test system: SNB-19
# T47D = test system: T47D
# UACC-62 = test system: UACC-62
smiles,measurement,setting,value
O=C1C2=Nc3ccccc3C(O)(C(=O)O)N2c2ccccc21 (centres undefined),GI50,786-0,36.5 µM (inactive)
same,GI50,A498,29.5 µM (inactive)
same,GI50,A549,7.66 µM (inactive)
same,GI50,ACHN,26.5 µM (inactive)
same,GI50,BT-549,> 10 µM (inactive)
same,GI50,CAKI-1,14.3 µM (inactive)
same,GI50,CCRF-CEM,21.9 µM (inactive)
same,GI50,COLO 205,16.4 µM (inactive)
same,GI50,DU-145,16.3 µM (inactive)
same,GI50,EKVX,60.7 µM (inactive)
same,GI50,HCC 2998,45.2 µM (inactive)
same,GI50,HCT-116,20 µM (inactive)
same,GI50,HCT-15,15.2 µM
same,GI50,HL-60,10.7 µM (inactive)
same,GI50,HOP-62,25.4 µM (inactive)
same,GI50,HOP-92,32.7 µM (inactive)
same,GI50,HT-29,21.2 µM (inactive)
same,GI50,Hs-578T,27.7 µM (inactive)
same,GI50,IGROV-1,37.7 µM (inactive)
same,GI50,K562,20.8 µM (inactive)
same,GI50,KM12,26.9 µM (inactive)
same,GI50,LOX IMVI,20.1 µM (inactive)
same,GI50,MCF7,19.9 µM (inactive)
same,GI50,MDA-MB-231,17.2 µM (inactive)
same,GI50,MDA-MB-435,2.26 µM (inactive)
same,GI50,MOLT-4,17.6 µM (inactive)
same,GI50,Malme-3M,15 µM (inactive)
same,GI50,NCI-H226,> 100 µM (inactive)
same,GI50,NCI-H23,24.1 µM (inactive)
same,GI50,NCI-H460,12.2 µM (inactive)
same,GI50,NCI-H522,17.6 µM (inactive)
same,GI50,NCI/ADR-RES,29.6 µM (inactive)
same,GI50,OVCAR-3,14 µM (inactive)
same,GI50,OVCAR-4,14.3 µM (inactive)
same,GI50,OVCAR-5,34.8 µM (inactive)
same,GI50,OVCAR-8,17.5 µM (inactive)
same,GI50,PC-3,6.61 µM (inactive)
same,GI50,RPMI-8226,6.68 µM (inactive)
same,GI50,RXF 393,40 µM (inactive)
same,GI50,SF-268,18.2 µM (inactive)
same,GI50,SF-295,17.2 µM (inactive)
same,GI50,SF-539,26.4 µM (inactive)
same,GI50,SK-MEL-28,43.9 µM (inactive)
same,GI50,SK-MEL-2,13.3 µM (inactive)
same,GI50,SK-MEL-5,14 µM (inactive)
same,GI50,SN12C,28.8 µM (inactive)
same,GI50,SNB-75,27.2 µM (inactive)
same,GI50,SR,14.6 µM (inactive)
same,GI50,SW-620,19.4 µM (inactive)
same,GI50,TK-10,81.7 µM (inactive)
same,GI50,U-251,19.9 µM (inactive)
same,GI50,UACC-257,10.7 µM (inactive)
same,GI50,UO-31,12.5 µM (inactive)
O=C(NCCNCCCNC(=O)c1cc(-c2ccccc2)nc2ccccc12)c1cccc(O)c1O,GI50,786-0,2.62 µM (inactive)
same,GI50,A498,15.8 µM (inactive)
same,GI50,A549,4.72 µM (inactive)
same,GI50,ACHN,2.43 µM (inactive)
same,GI50,BT-549,2.56 µM (inactive)
same,GI50,CAKI-1,5.4 µM (inactive)
same,GI50,CCRF-CEM,0.697 µM (active)
same,GI50,COLO 205,3.18 µM (inactive)
same,GI50,DU-145,3.61 µM (inactive)
same,GI50,EKVX,24.4 µM (inactive)
same,GI50,HCC 2998,3.73 µM (inactive)
same,GI50,HCT-116,1.47 µM (inactive)
same,GI50,HCT-15,5.36 µM
same,GI50,HL-60,3.21 µM (inactive)
same,GI50,HOP-62,1.05 µM (active)
same,GI50,HOP-92,14.9 µM (inactive)
same,GI50,HT-29,4.88 µM (inactive)
same,GI50,Hs-578T,13.8 µM (inactive)
same,GI50,IGROV-1,7.82 µM (inactive)
same,GI50,K562,2 µM (inactive)
same,GI50,KM12,4.44 µM (inactive)
same,GI50,LOX IMVI,3.33 µM (inactive)
same,GI50,M14,1.46 µM (inactive)
same,GI50,MCF7,3.3 µM (inactive)
same,GI50,MDA-MB-231,4.23 µM (inactive)
same,GI50,MDA-MB-435,2.51 µM (inactive)
same,GI50,MOLT-4,0.916 µM (active)
same,GI50,Malme-3M,3.82 µM (inactive)
same,GI50,NCI-H226,18.5 µM (inactive)
same,GI50,NCI-H23,6.14 µM (inactive)
same,GI50,NCI-H460,2.36 µM (inactive)
same,GI50,NCI-H522,6.82 µM (inactive)
same,GI50,NCI/ADR-RES,22.4 µM (inactive)
same,GI50,OVCAR-3,2.38 µM (inactive)
same,GI50,OVCAR-5,2.28 µM (inactive)
same,GI50,OVCAR-8,2.38 µM (inactive)
same,GI50,PC-3,5.94 µM (inactive)
same,GI50,RPMI-8226,2.85 µM (inactive)
same,GI50,RXF 393,4.84 µM (inactive)
same,GI50,SF-268,2.86 µM (inactive)
same,GI50,SF-295,1.84 µM (inactive)
same,GI50,SF-539,2.48 µM (inactive)
same,GI50,SK-MEL-28,1.72 µM (inactive)
same,GI50,SK-MEL-2,2.8 µM (inactive)
same,GI50,SK-MEL-5,1.36 µM (inactive)
same,GI50,SK-OV-3,6.11 µM (inactive)
same,GI50,SN12C,1.95 µM (inactive)
same,GI50,SNB-19,2.1 µM (inactive)
same,GI50,SNB-75,10.6 µM (inactive)
same,GI50,SW-620,4.47 µM (inactive)
same,GI50,T47D,3.3 µM (inactive)
same,GI50,TK-10,1.63 µM (inactive)
same,GI50,U-251,2.87 µM (inactive)
same,GI50,UACC-257,4.01 µM (inactive)
same,GI50,UACC-62,2.27 µM (inactive)
same,GI50,UO-31,3.3 µM (inactive)

# Source: ChEMBL document CHEMBL1201862, “PubChem BioAssay data set” (2004)
